Measured values published in patent US20210315893A1 (Galapagos NV, priority 2017, published 2021).

Experiments:
[1] = target: T1, human GPCR sphingosine 1-phosphate receptor 2 (Homo sapiens, UniProt O95136); assay: S1PR2 antagonist Ca2+ flux assay; format: cell-based; details: antagonist mode, CHO-S1PR2 cells, S1P at EC80, Ca2+ fluorescence; read-out: S1P2 EC50 (nM), S1P2 antagonist EC50
T1 construct: host or cells: CHO
Procedure, shortened: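 Antagonist mode: 15 min after compound addition, S1P (EC80) stimulates Fluo8-loaded, 1 h-starved CHO-S1PR2 cells, Ca2+ read over 3 min; a prior 3-min read checks compound agonism. EC50 from peak/baseline fluorescence ratio, normalised versus vehicle and S1P EC50 (antagonist) or EC100 (agonist).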

[2] = target: T2, human GPCR sphingosine 1-phosphate receptor 1 (Homo sapiens, UniProt P21453); assay: S1PR1 selectivity Ca2+ flux assay (antagonist readout); format: cell-based; details: antagonist readout, CHO cells overexpressing human S1PR1 and Gq, S1P at EC80 (6 nM); read-out: S1P1 EC50 (nM), S1P1 antagonist EC50
T2 construct: host or cells: CHO
Procedure, shortened: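 Antagonist mode: S1P challenge follows 15 min compound preincubation at 37 °C. Cells are CHO stably expressing human S1PR1, serum-starved 1 h (0.1% FAF BSA), loaded with Fluo 8. Peak-over-baseline fluorescence ratio is normalized to positive/negative controls; IC50 from logistic curve fit.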

[3] = target: T3, human GPCR sphingosine 1-phosphate receptor 5 (Homo sapiens, UniProt Q9H228); assay: S1PR5 selectivity Ca2+ flux assay (antagonist readout); format: cell-based; details: CHO cells overexpressing human S1PR5 and Gq, agonist at EC80 (20 nM), read-out: S1P5 EC50 (nM), S1P5 antagonist EC50
T3 construct: host or cells: CHO
Procedure, shortened: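 Antagonist readout: after 15 min compound preincubation at 37° C, human S1PR5/Gq CHO cells loaded with Fluo 8 dye received an EC80 challenge of S1PR5-specific agonist, and fluorescence was recorded for 3 min. Maximal-over-background ratios, normalized as % inhibition, gave IC50 by logistic fit.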

S1PR2 = target: T4, S1PR2 (Homo sapiens, UniProt O95136); assay: S1PR2 binding assay (competition with radioactively labeled S1P, SpA); details: membranes from stable cell line over expressing S1PR2, SpA beads; read-out: S1P2 EC50 (nM), S1PR2 binding EC50
T4 construct: expressed in transfected cells
Procedure, shortened: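 Scintillation proximity read-out after 2 h room-temperature incubation of compound, [3H]S1P and S1PR2-overexpressing cell membranes on WGA-coated beads. Buffer: 20 mM Tris pH 7.5, 100 mM NaCl, 10 mM MgCl2, 1 mM Na3VO4, 0.4% fatty-acid-free BSA; plates counted immediately after centrifugation.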

HFL-1 cells [4] = assay: IL-8 production assay (S1P induced IL-8); format: cell-based; details: Homo sapiens, HFL1; S1P (1 μM) induced IL-8 in HFL-1 cells, starvation medium without HSA; read-out: IL8 EC50
Procedure, shortened: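 HFL-1 fibroblasts in low-serum medium were pretreated 1 h with a 10-point 1/3 series of compound starting at 30 μM (0.3% DMSO).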

HFL-1 cells [5] = assay: IL8 assay in the presence of Human Serum Albumin; details: HFL1, read-out: HSA IL8 EC50

T3 sequence (Q9H228 whole entry): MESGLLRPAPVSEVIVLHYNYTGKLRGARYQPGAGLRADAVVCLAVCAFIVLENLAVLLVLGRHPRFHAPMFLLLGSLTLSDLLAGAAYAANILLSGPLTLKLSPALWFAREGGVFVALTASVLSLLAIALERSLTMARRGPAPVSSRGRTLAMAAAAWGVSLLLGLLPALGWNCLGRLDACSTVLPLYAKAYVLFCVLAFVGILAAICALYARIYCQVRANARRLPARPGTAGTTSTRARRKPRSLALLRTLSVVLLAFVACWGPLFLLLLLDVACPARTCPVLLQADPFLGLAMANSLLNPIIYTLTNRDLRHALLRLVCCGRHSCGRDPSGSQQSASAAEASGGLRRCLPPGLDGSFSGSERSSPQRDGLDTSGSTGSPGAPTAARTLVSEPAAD
T4 sequence (O95136 whole entry): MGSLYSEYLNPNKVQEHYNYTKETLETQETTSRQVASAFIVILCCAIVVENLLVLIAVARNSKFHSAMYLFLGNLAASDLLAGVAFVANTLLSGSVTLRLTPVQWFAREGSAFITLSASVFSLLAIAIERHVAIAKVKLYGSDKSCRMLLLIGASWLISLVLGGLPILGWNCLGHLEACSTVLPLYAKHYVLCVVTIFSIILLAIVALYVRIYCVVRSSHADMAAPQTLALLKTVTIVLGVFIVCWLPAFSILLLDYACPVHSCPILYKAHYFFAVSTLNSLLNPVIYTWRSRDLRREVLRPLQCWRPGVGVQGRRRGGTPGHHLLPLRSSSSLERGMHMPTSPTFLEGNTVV
T1 sequence (O95136 whole entry): as above
T2 sequence (P21453 whole entry): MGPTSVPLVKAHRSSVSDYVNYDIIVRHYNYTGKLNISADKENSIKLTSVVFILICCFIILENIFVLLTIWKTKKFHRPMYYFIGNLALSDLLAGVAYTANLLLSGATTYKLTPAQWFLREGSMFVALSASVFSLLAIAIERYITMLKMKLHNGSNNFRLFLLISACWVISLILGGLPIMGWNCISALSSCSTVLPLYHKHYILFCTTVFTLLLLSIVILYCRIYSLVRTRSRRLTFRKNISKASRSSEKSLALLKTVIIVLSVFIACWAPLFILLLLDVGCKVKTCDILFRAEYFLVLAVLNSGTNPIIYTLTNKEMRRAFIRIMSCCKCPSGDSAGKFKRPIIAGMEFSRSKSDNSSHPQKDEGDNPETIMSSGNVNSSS

SMILES	EC50 [1] [nM]	EC50 [2] [nM]	EC50 [3] [nM]	EC50 (S1PR2) [nM]	EC50 (HFL-1 cells [4]) [nM]	EC50 (HFL-1 cells [5]) [nM]
COc1ccc2c(Cn3cc4cc(OCC5CC5)c(Cl)cc4n3)nn(C(C)C(=O)O)c(=O)c2c1 (stereo not drawn) [Compound 97, 2-[4-[[6-chloro-5-(cyclopropylmethoxy)indazol-2-yl]methyl]-7-methoxy-1-oxo-phthalazin-2-yl]propanoic acid]	53.4	≥ 19800	19800	432	60.5	5700
N#Cc1cc2[nH]c(Cc3nn(C4CNC4)c(=O)c4ccccc34)nc2cc1OCC(F)F [Compound 68, 2-[[3-(azetidin-3-yl)-4-oxo-phthalazin-1-yl]methyl]-6-(2,2-difluoroethoxy)-3H-benzimidazole-5-carbonitrile]	547	≥ 19800	19800	275	76.7	123
N#Cc1cc2[nH]c(Cc3nn(CC(=O)N4C[C@H](O)[C@@H](O)C4)c(=O)c4ccccc34)nc2cc1OCC(F)F [Compound 211, 6-(2,2-difluoroethoxy)-2-[[3-[2-[(3S,4S)-3,4-dihydroxypyrrolidin-1-yl]-2-oxo-ethyl]-4-oxo-phthalazin-1-yl]methyl]-3H-benzimidazole-5-carbonitrile]	39.7	≥ 19800	19800	142	46.5	159
CCOc1cc2[nH]c(Cc3nn(CC(=O)N4CCOCC4)c(=O)c4ccccc34)nc2cc1C(F)(F)F [Compound 168, 4-[[6-ethoxy-5-(trifluoromethyl)-1H-benzimidazol-2-yl]methyl]-2-(2-morpholino-2-oxo-ethyl)phthalazin-1-one]	11.9	≥ 19800	19800	86.4	4.57	28.1
N#Cc1cc2[nH]c(Cc3nn(CC(=O)NC4CCOC4)c(=O)c4ccccc34)nc2cc1OCC(F)F (stereo not drawn) [Compound 178, 2-[4-[[6-cyano-5-(2,2-difluoroethoxy)-1H-benzimidazol-2-yl]methyl]-1-oxo-phthalazin-2-yl]-N-THF-3-yl-acetamide]	118	≥ 19800	19800	188	160	504
CC(C(=O)O)n1nc(Cc2nc3cc(OCC4CC4)c(Cl)cc3[nH]2)c2ccccc2c1=O (stereo not drawn) [Compound 122, 2-[4-(6-Chloro-5-cyclopropylmethoxy-1H-benzoimidazol-2-ylmethyl)-1-oxo-1H-phthalazin-2-yl]-propionic acid]	13.6	3720	19800	342	2.29	13.3
CC(F)(F)COc1cc2[nH]c(Cc3nn(CC(=O)N4CCOCC4)c(=O)c4ccccc34)nc2cc1Cl [Compound 172, 4-[[5-chloro-6-(2,2-difluoropropoxy)-1H-benzimidazol-2-yl]methyl]-2-(2-morpholino-2-oxo-ethyl)phthalazin-1-one]	7.57	≥ 19800	19800	15.8	29.1	33.4
O=C(Cn1nc(Cc2cc3cc(Cl)c(OCC(F)F)cc3[nH]2)c2ccccc2c1=O)N1CCOCC1 [compound 11, 4-[[5-chloro-6-(2,2-difluoro-ethoxy)-1H-indol-2-yl]-methyl]-2-(2-morpholino-2-oxo-ethyl)-phthalazin-1-one]	80	≥ 19800	19800	324	59.6	694
O=C(Cn1nc(Cc2nc3cc(OCC(F)F)c(F)cc3[nH]2)c2c(c1=O)CCCC2)N1CCOCC1 [Compound 179, 4-[[5-(2,2-difluoroethoxy)-6-fluoro-1H-benzimidazol-2-yl]methyl]-2-(2-morpholino-2-oxo-ethyl)-5,6,7,8-tetrahydrophthalazin-1-one]	107	≥ 19800	19800	207	352	353
CC(C(=O)NS(C)(=O)=O)c1nn(Cc2cn3cc(OCC4CC4)c(Cl)cc3n2)c2ccccc2c1=O (stereo not drawn) [compound 15, 2-[1-[[7-chloro-6-(cyclopropyl-methoxy)imidazo-[1,2-a]pyridin-2-yl]methyl]-4-oxo-cinnolin-3-yl]-N-methylsulfonyl-propanamide]	5.57	≥ 19800	19800	378	24.2	343
N#Cc1cc2[nH]c(Cn3nc(CC(=O)O)c(=O)c4ccccc43)nc2cc1OCC1CC1 [Compound 108, 2-[1-[[6-cyano-5-(cyclopropylmethoxy)-1H-benzimidazol-2-yl]methyl]-4-oxo-cinnolin-3-yl]acetic acid]	2.94	3080	19800	9.21	1.54	5.89
N#Cc1cc2nc(Cc3nn(CC(=O)O)c(=O)c4ccccc34)cn2cc1OCC1CC1 [Compound 79, 2-[4-[[7-cyano-6-(cyclopropylmethoxy)imidazo[1,2-a]pyridin-2-yl]methyl]-1-oxo-phthalazin-2-yl]acetic acid]	82.7	≥ 19800	19800	221	57.7	503
O=C(O)c1nn(Cc2cn3cc(OCC4CC4)c(Cl)cc3n2)c2ccccc2c1=O [Compound 85, 1-[[7-chloro-6-(cyclopropylmethoxy)imidazo[1,2-a]pyridin-2-yl]methyl]-4-oxo-cinnoline-3-carboxylic acid]	37.4	≥ 19800	19800	619	78.9	2280
O=C(Cn1nc(Cc2nc3cc(Cl)c(OCC4CC4)c(F)c3[nH]2)c2ccccc2c1=O)N1CCOCC1 [Compound 149, 4-[[5-chloro-6-(cyclopropylmethoxy)-7-fluoro-1H-benzimidazol-2-yl]methyl]-2-(2-morpholino-2-oxo-ethyl)phthalazin-1-one]	30.4	≥ 19800	19800	142	211	381
O=C(O)Cn1cc(Cc2nc3cc(Cl)c(OCC(F)F)cc3[nH]2)c2ccccc2c1=O [Compound 125, {4-[5-Chloro-6-(2,2-difluoro-ethoxy)-1H-benzoimidazol-2-ylmethyl]-1-oxo-1H-isoquinolin-2-yl}-acetic acid]	24.4	≥ 19800	19800	200	66.1	1680
N#Cc1cc2[nH]c(Cc3nn(CC(=O)N4CCC(O)(C5CC5)CC4)c(=O)c4ccccc34)nc2cc1OCC(F)F [Compound 213, 2-[[3-[2-(4-cyclopropyl-4-hydroxy-1-piperidyl)-2-oxo-ethyl]-4-oxo-phthalazin-1-yl)methyl]-6-(2,2-difluoroethoxy)-3H-benzimidazole-5-carbonitrile]	41.4	≥ 19800	19800	159	70.7	178
CN(C)C1CCN(C(=O)Cn2nc(Cc3nc4cc(OCC(F)F)c(C#N)cc4[nH]3)c3ccccc3c2=O)C1 (stereo not drawn) [Compound 176, 6-(2,2-difluoroethoxy)-2-[[3-[2-[3-(dimethylamino)pyrrolidin-1-yl]-2-oxo-ethyl]-4-oxo-phthalazin-1-yl]methyl]-3H-benzimidazole-5-carbonitrile]	489	≥ 19800	19800	386	116	618
N#Cc1cc2nn(Cc3nn(CC(=O)O)c(=O)c4ccccc34)cc2cc1OCC1CC1 [Compound 135, 2-[4-[[6-cyano-5-(cyclopropylmethoxy)indazol-2-yl]methyl]-1-oxo-phthalazin-2-yl]acetic acid]	37.5	≥ 19800	19800	178	24.3	3460
